Test results from US11311546B2, “Method for enhancing wound healing by administrating adenine” (Energenesis Biomedical Co., Ltd., priority 2017, dated 2022).

How the values were obtained:
[1] = tested on: diabetic wound of db/db mice; test: Diabetic wound healing, 0.02% adenine gel on splinted full thickness wound; format: in vivo; conditions: 0.02% adenine in a form of gel, once daily for 15 days
Protocol: The BKS. Cg-Dock7^m+/+Lepr^db/Jnarl (db/db) male mice at 8 weeks of age were purchased from the National Laboratory Animal Center (NLAC, R.O.C.). A total number of 10 mice with healthy and intact skin were used for the test for diabetic wound healing. The average±SEM body weight of the mice was 34.5±1.5 g. All mice had fasting blood glucose levels over 300 mg/dL.
The mice were housed individually in stainless steel cage, and were quarantined and acclimated for at least one week prior to test for diabetic wound healing. The temperature and relative humidity were in the range stipulated in the protocol at 21±2° C. and 55±10%, respectively. A 12-h/12-h light/dark cycle was maintained with light on at 7:00 AM and off at 7:00 PM.
The method for applying the composition containing 0.02% of adenine to the diabetic wound of mice was shown as follows. The mice described in Preparation example 4 were randomly divided into two groups of five animals each and then were anesthetized with isoflurane by use of an anesthesia system for rodents (Matrx™ VIP 3000 isoflurane vaporizer, Midmark). […]
(§1) Wounds of each mice were photographed everyday with standardized exposure and focal lengths using a digital camera (Lumix DMC-GF1, Panasonic), and wound areas were analyzed and calculated according to the analysis as described in Example 1.

[2] = tested on: AMPK; test: AMPK activation assay (western blot of regenerated skin tissue); format: in vivo; conditions: db/db mice, 12 days post wounding
Protocol: Effects of adenine on AMPK activation were evaluated based on the phosphorylation of AMPK and Acetyl-CoA carboxylase (ACC) protein upon adenine treatment. The process of animal experiment was the same as Example 2, except that after 12 days post wounding, skin tissues of db/db mice were homogenized and subject to western blot analysis. Equal amount of proteins from each sample was separated by SDS-PAGE and then electroblotted on to PVDF membranes. Membranes were blocked with 3% BSA in PBS for 60 mins and incubated with an anti-phospho-AMPK (Thr172) antibody (1:2000, Cell Signaling), an anti-AMPK antibody (1:2000, Cell Signaling), an anti-ACC antibody (1:1000, Cell Signaling) or an anti-phospho-ACC antibody (1:1000, Cell Signaling) at 4° C. overnight followed by the corresponding secondary antibody for 1 h at room temperature (RT). Immunoreactive bands were detected by enhanced chemiluminescence (ECL; Pierce, Rockford, Ill., USA) and recorded using Kodak film (Rochester, N.Y., USA). The detected signals were scanned and then quantified using ImageJ software.

[3] = tested on: ATP; test: ATP assay in regenerated skin tissue; format: in vivo; conditions: db/db mice; 12 days post wounding; ATP colorimetric assay
Protocol: The process of animal experiment was the same as Example 2, except that after 12 days post wounding, skin tissues of db/db mice were homogenized and centrifuged for 10 mins with 8,000 rpm at 4° C. Supernatant from tissue lysate was filled up in the column and spun down at 1,000×g for 2 minutes. 10 μL of eluate was analyzed using ATP colorimetric assay kit (Biovision).

[4] = tested on: scald burn wound of C57BL/6 mice; test: Scald burns healing; format: in vivo; conditions: 1 to 4,000 μM adenine in normal saline, once daily for 28 days
Protocol: The C57BL/6 mice approximately at 8 weeks of age were purchased from the National Laboratory Animal Center (NLAC, R.O.C.). The mice were deeply anesthetized by injecting intraperitoneally normal saline mixed with zoletil 50 and 2% rompun in a ratio of 2:1:1 (2 μl per gram of body weight). Each of the mice was shaved by depilatory cream. The shaved dorsal surface of each mice was sterilized with 70% ethanol and then the mice were placed in a restrainer with a 2×3 cm hole at the top. The dorsal surface of mice was exposed toward the hole of restrainer. The water at 60° C. was applied to the dorsal surface of mice for 40 seconds, followed by water at 4° C. for 45 seconds. The mice of Control group was only applied with water at 4° C. for 45 seconds. After scalding, each of the mice was then individually placed in a cage, and fed with diazepam in the drinking water (50 mg/L) for the early 7 days. The mice were monitored every day for body weight of and wound infections. […]
as §1

[5] = tested on: pressure ulcer wound of C57BL/6 mice; test: Pressure ulcer healing; format: in vivo; conditions: 1 to 4,000 μM adenine in normal saline
Protocol: The C57BL/6 mice approximately at 8 weeks of age were purchased from the National Laboratory Animal Center (NLAC, R.O.C.). The mice were anesthetized with isoflurane using anesthesia system for rodents (Matrx™ VIP 3000 isoflurane vaporizer, Midmark). Before wounding, the dorsal surface was shaved and sterilely prepped with 70% ethanol for surgery. Dorsal skin was positioned between 2 circular magnets having 12-mm diameter for 12 hours and removed from them for 12 hours for 1 ischemia-reperfusion cycle. Pressure ulcer was created by 2 ischemia-reperfusion cycles. The force generated between the 2 magnets was 0.183N for a 5-mm skin bridge between the 2 magnets.
After 2 ischemia-reperfusion cycles, the compositions containing 1 μM to 4,000 μM adenine in normal saline or only normal saline as Control were individually applied on the pressure ulcer wound of mice once daily for 14 days.
as §1

[6] = tested on: 3T3 cells; test: Fibroblast (3T3) cell proliferation assay; format: cell-based, Human; conditions: 72 h; dose-dependent
Protocol: […] fibro blast cell line 3T3 were cultured in high-glucose Dulbecco's modified Eagle's medium (DMEM) containing 10% fetal bovine serum (FBS), 4 mM L-glutamine, 2 mM sodium pyruvate and 1% penicillin/streptomycin (Invitrogen GibeoBRL, Carlsbad, Calif., USA) at 37° C. under 5% CO2. For cell proliferation assay, 3T3 cells were plated at 1×10^5 per well (6-well plate). 24 h after plating, cells were treated with indicated concentration of adenine for 72 h and the number of viable cells was counted. Cells were detached using trypsin-EDTA solution and stained with trypan blue. The living cells were counted using hemocytometer. […] Data were presented as the mean±SEM of three independent experiments.

[7] = tested on: full-thickness excisional skin wounds of C57BL/6J mice; test: Excisional skin wound healing and scar formation; format: in vivo
Protocol: C57BL/6J mice were maintained at 22° C. under a 12-h light/dark cycle. The experiments were performed with 12-weeks old mice. After anesthetized by an intraperitoneal injection of ketamine ([…]) and xylazine (100 mg/kg), 6-mm full-thickness excisional skin wounds was made on the backs of mice using 6-mm skin biopsy punches. Immediately after wounding, 1 μM to 4000 μM of adenine in […] saline or saline alone was applied to the wound bed. The skin wounds were then covered by semipermeable transparent dressing and fixed to the skin. The mice were treated with adenine or vehicle for 14 days and then sacrificed. The scar formation was assessed by Masson's trichrome staining to observe the fibrosis process and the collagen framework of the healed wound (Fixed by 4% paraformaldehyde).

SMILES: Nc1ncnc2nc[nH]c12 [Adenine, adenine]
- process of diabetic wound healing [1]: efficiently enhance the process of diabetic wound healing
- phosphorylation level of ACC in regenerated skin tissue [2]: efficiently enhance phosphorylation level
- phosphorylation level of AMPK in regenerated skin tissue [2]: efficiently enhance phosphorylation level
- ATP level in regenerated skin tissue [3]: efficiently increase ATP level
- inflammatory response [4]: efficiently decrease inflammatory response
- process of healing of scald burns wound [4]: enhance the process of healing of scald burns wound
- process of healing of pressure ulcer wound ([5]; once daily for 14 days): efficiently enhance the process of healing of pressure ulcer wound
- extent of closure versus control mice ([5]; after 14 day of treatment, dose-dependent): significantly greater
- 3T3 cell proliferation [6]: significantly inhibited
- scar width compared to vehicle treated wounds ([7]; 14 days post-wounding, topical treatment, histological examination): significantly decreased
- extent of closure versus control mice ([7]; after 14 days of treatment, 1 μM to 4000 μM adenine in saline, dose-dependent): significantly greater
